According to ChEMBL document CHEMBL4831533, “Novel Substituted 1,6-Naphthyridines as CDK 5 Inhibitors for Treating Kidney Diseases” (ACS Med Chem Lett, 2021):

Molecular target: Cyclin-dependent kinase 5/CDK5 activator 1 (Homo sapiens, UniProt Q00535)
Experiment: Inhibition of full length human CDK5 (1 to 292 residues)/p25 expressed in baculovirus expression system using FL peptide 29 as a substrate preincubated for 30 mins followed by substrate addition incubated for 60 mins in the presence of ATP by mobility shift assay

Sequence of Cyclin-dependent kinase 5/CDK5 activator 1 (Q00535 whole entry, the tested form may be a part): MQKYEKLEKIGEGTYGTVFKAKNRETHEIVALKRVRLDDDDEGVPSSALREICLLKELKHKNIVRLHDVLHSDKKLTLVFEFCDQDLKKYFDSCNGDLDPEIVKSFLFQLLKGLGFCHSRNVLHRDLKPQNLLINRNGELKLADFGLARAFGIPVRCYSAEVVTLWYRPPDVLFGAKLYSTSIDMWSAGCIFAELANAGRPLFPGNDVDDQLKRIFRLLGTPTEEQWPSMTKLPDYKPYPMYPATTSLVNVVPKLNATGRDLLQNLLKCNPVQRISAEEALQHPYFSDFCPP
Sequence of Cyclin-dependent kinase 5/CDK5 activator 1 (Q15078 whole entry, further chain, the tested form may be a part): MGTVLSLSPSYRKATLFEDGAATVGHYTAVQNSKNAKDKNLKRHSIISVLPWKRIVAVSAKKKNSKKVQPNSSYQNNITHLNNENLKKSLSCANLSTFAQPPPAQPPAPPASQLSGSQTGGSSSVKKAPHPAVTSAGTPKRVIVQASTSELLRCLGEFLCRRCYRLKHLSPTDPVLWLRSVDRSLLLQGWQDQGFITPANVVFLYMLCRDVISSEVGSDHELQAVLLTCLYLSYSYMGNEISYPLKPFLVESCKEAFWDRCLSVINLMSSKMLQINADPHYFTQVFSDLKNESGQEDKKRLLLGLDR

| IC50 [nM] | Structure (SMILES) |
| --- | --- |
| < 10 | CN1CCC(S(=O)(=O)c2ccc3cnc(Nc4ccc(N5CCCS5(=O)=O)cc4)cc3n2)CC1 |
| < 10 | CN1CCC([C@@](C)(O)c2ccc3cnc(Nc4ccc(S(C)(=O)=O)cc4)cc3n2)CC1 |
| < 10 | CN1CCC([C@@](C)(O)c2ccc3cnc(Nc4cccc(C(N)=O)c4)cc3n2)CC1 |

Continued, compound first:

| Structure (SMILES) | IC50 [nM] |
| --- | --- |
| CCOC(=O)c1cccc(Nc2cc3nc(SC4CCNCC4)ccc3cn2)c1 | < 10 |
| CN1CCC(N(CC(=O)O)c2ccc3cnc(Nc4cccc(S(N)(=O)=O)c4)cc3n2)CC1 | < 10 |
| CN1CCC(C(=O)c2ccc3cnc(Nc4ccc(-n5cccn5)cc4F)cc3n2)CC1 | < 10 |
